Key:
Type in all cases: in vivo
rice (Oryra sativa) = test: Test B flooded paddy test; conditions: Flood, 250 g ai/ha; 0 to 100 scale where 0 is no effect and 100 is complete control; 13 to 15 d
Procedure, shortened: (§1)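 Rating scale 0–100 (visual, vs untreated controls) after a 13–15 d greenhouse period; application to the flood layer, 3 cm above soil and maintained; plants at 2-leaf stage when treated.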

[1] = tested on: barnyardgrass (Echinochloa crus-galli); test: Test B flooded paddy test; conditions: Flood, 250 g ai/ha; 0 to 100 scale where 0 is no effect and 100 is complete control; 13 to 15 d
Procedure, shortened: as §1

[2] = tested on: sedge, umbrella (small-flower umbrella sedge, Cyperus difformis); test: Test B flooded paddy test; conditions: Flood, 250 g ai/ha; 0 to 100 scale where 0 is no effect and 100 is complete control; 13 to 15 d
Procedure, shortened: as §1

[3] = tested on: ducksalad (Heteranthera limosa); test: Test B flooded paddy test; conditions: Flood, 250 g ai/ha; 0 to 100 scale where 0 is no effect and 100 is complete control; 13 to 15 d
Procedure, shortened: as §1

[4] = tested on: Galium (catchweed bedstraw, Galium aparine); test: Test A postemergence; conditions: postemergence, 0 to 100 scale (0 no effect, 100 complete control)
Procedure, shortened: (§2)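 Each rating is a visual injury score from 0 to 100 given about 10 d after treatment, judged against untreated controls kept alongside in the greenhouse. In loam soil–sand blend, seeds got a preemergence directed soil spray, while postemergence plants were 2 to 10 cm tall at spraying.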

[5] = tested on: pigweed (Amaranthus retroflexus); test: Test A postemergence; conditions: postemergence, 0 to 100 scale (0 no effect, 100 complete control)
Procedure, shortened: as §2

[6] = tested on: ragweed (common ragweed, Ambrosia elatior); test: Test A postemergence; conditions: postemergence, 0 to 100 scale (0 no effect, 100 complete control)
Procedure, shortened: as §2

Kochia (Kochia scoparia) [7] = test: Test A postemergence; conditions: postemergence, 0 to 100 scale (0 no effect, 100 complete control)
Procedure, shortened: as §2

[8] = tested on: ryegrass, Italian (Italian ryegrass, Lolium multiflorum); test: Test A postemergence; conditions: postemergence, 0 to 100 scale (0 no effect, 100 complete control)
Procedure, shortened: as §2

[9] = tested on: giant foxtail (Setaria faberii); test: Test A postemergence; conditions: postemergence, 0 to 100 scale (0 no effect, 100 complete control)
Procedure, shortened: as §2

[10] = tested on: barnyardgrass (Echinochloa crus-galli); test: Test A postemergence; conditions: postemergence, 0 to 100 scale (0 no effect, 100 complete control)
Procedure, shortened: as §2

corn (Zea mays) = test: Test A postemergence; conditions: postemergence, 0 to 100 scale (0 no effect, 100 complete control)
Procedure, shortened: as §2

[11] = tested on: wheat (Triticum aestivum); test: Test A postemergence; conditions: postemergence, 0 to 100 scale (0 no effect, 100 complete control)
Procedure, shortened: as §2

[12] = tested on: blackgrass (Alopecurus myosuroides); test: Test A postemergence; conditions: postemergence, 0 to 100 scale (0 no effect, 100 complete control)
Procedure, shortened: as §2

[13] = tested on: pigweed (Amaranthus retroflexus); test: Test A preemergence
[14] = tested on: ragweed (common ragweed, Ambrosia elatior); test: Test A preemergence
Procedure, shortened: as §2

Kochia (Kochia scoparia) [15] = test: Test A preemergence
Procedure, shortened: as §2

[16] = tested on: ryegrass, Italian (Italian ryegrass, Lolium multiflorum); test: Test A preemergence
Procedure, shortened: as §2

[17] = tested on: giant foxtail (Setaria faberii); test: Test A preemergence
Procedure, shortened: as §2

[18] = tested on: barnyardgrass (Echinochloa crus-galli); test: Test A preemergence
Procedure, shortened: as §2

[19] = 125 g ai/ha, visual rating after approx. 10 d
[20] = 500 g ai/ha, visual injury, approx. 10 d
[21] = 125 g ai/ha, Preemergence, visual injury after approximately 10 d, 0 to 100 scale where 0 is no effect and 100 is complete control
[22] = 500 g ai/ha, preemergence, 0 to 100 scale, 0 = no effect, 100 = complete control

Cc1ccc(C2CN(C)C(=O)C2C(=O)Nc2ccccc2C(F)(F)F)cc1 (stereo not drawn) [Compound 665]
Plant response rating, Rice (rice (Oryra sativa)): 25 | Plant response rating, Barnyardgrass [1]: 70 | Plant response rating, Sedge, Umbrella [2]: 0 | Plant response rating, Ducksalad [3]: 90 | Plant response rating, Galium [4, 19]: 50 | Plant response rating, Galium [4, 20]: 50 | Plant response rating, Pigweed [5, 19]: 0 | Plant response rating, Pigweed [5, 20]: 20 | Plant response rating, Ragweed [6, 19]: 0 | Plant response rating, Ragweed [6, 20]: 30 | Plant response rating, Kochia (Kochia (Kochia scoparia) [7]; [19]): 0 | Plant response rating, Kochia (Kochia (Kochia scoparia) [7]; [20]): 50 | Plant response rating, Ryegrass, Italian [8, 19]: 30 | Plant response rating, Ryegrass, Italian [8, 20]: 80 | Plant response rating, Foxtail, Giant [9, 19]: 90 | Plant response rating, Foxtail, Giant [9, 20]: 90 | Plant response rating, Barnyardgrass [10, 19]: 90 | Plant response rating, Barnyardgrass [10, 20]: 90 | Plant response rating, Corn (corn (Zea mays); [19]): 40 | Plant response rating, Corn (corn (Zea mays); [20]): 70 | Plant response rating, Wheat [11, 19]: 30 | Plant response rating, Wheat [11, 20]: 70 | Plant response rating, Blackgrass [12, 19]: 40 | Plant response rating, Blackgrass [12, 20]: 70 | Plant response rating, Pigweed [13, 21]: 30 | Plant response rating, Pigweed [13, 22]: 30 | Plant response rating, Ragweed [14, 21]: 20 | Plant response rating, Ragweed [14, 22]: 90 | Plant response rating, Kochia (Kochia (Kochia scoparia) [15]; [21]): 60 | Plant response rating, Kochia (Kochia (Kochia scoparia) [15]; [22]): 70 | Plant response rating, Ryegrass, Italian [16, 21]: 20 | Plant response rating, Ryegrass, Italian [16, 22]: 50 | Plant response rating, Foxtail, Giant [17, 21]: 100 | Plant response rating, Foxtail, Giant [17, 22]: 100 | Plant response rating, Barnyardgrass [18, 21]: 90 | Plant response rating, Barnyardgrass [18, 22]: 90

From patent publication US12077503B2, “Substituted cyclic amides and their use as herbicides” (FMC CORPORATION, priority 2015, dated 2024)
